For 19 molecules, IC50 results are on record in patent publication US9957264B2 (Merck Sharp & Dohme Corp., priority 2013, dated 2018).

The structures appear in SMILES notation.

The target in experiment [1] is JAK1 (recombinant purified GST-tagged catalytic domain) (Homo sapiens (Human), UniProt P23458). In words: Jak Biochemical HTRF Assay (JAK1). As to conditions: [ATP] 31.8 μM. The method in brief: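 HTRF format, biotinylated peptide substrate; ATP-initiated reaction 120 min RT; EDTA quench + streptavidin-Dylight 650/Eu-anti-pY20 detection, 60 min RT; signal = 665/615 ratio ×10,000; normalized % inhibition, 4-parameter fit → IC50.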

For experiment [2], the target named is JAK2 (recombinant purified GST-tagged catalytic domain) (Homo sapiens (Human), UniProt O60674). Kind of experiment: Jak Biochemical HTRF Assay (JAK2). As to conditions: [ATP] 8.5 μM.

As usually defined, the IC50 is the concentration that gives 50% inhibition.

Sequence of JAK2 (recombinant purified GST-tagged catalytic domain) (O60674 849-1124): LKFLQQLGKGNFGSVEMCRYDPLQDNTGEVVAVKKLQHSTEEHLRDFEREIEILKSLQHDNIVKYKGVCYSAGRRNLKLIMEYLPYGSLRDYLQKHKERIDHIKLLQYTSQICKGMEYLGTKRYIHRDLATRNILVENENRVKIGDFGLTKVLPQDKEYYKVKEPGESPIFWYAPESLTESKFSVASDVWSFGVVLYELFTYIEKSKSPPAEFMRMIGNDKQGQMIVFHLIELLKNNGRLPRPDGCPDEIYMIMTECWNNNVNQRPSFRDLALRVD
Sequence of JAK1 (recombinant purified GST-tagged catalytic domain) (P23458 875-1153): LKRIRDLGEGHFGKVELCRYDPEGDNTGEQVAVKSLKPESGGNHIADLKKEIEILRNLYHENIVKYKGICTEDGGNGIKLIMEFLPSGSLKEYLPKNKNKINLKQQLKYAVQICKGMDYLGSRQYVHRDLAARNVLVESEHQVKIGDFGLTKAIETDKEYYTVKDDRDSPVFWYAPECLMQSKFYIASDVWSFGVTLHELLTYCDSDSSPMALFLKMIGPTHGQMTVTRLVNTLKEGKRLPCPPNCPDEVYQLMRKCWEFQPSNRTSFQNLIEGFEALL

Take `CC(C)(C)OC(=O)[C@@H]1CC[C@@](CC#N)(n2nc(Nc3ccc(S(=O)(=O)N4CCOCC4)cc3)c3c(=O)[nH]ccc32)CO1` [Example 5-203, (2S,5S)-tert-butyl 5-(cyanomethyl)-5-(3-((4-(morpholinosulfonyl)phenyl)amino)-4-oxo-4,5-dihydro-1H-pyrazolo[4,3-c]pyridin-1-yl)tetrahydro-2H-pyran-2-carboxylate]: the figures for the IC50 in experiment [1] and in experiment [2] were 0.15 nM and 0.27 nM, respectively.
For `CC(C)(C)N1Cc2cc(Nc3nn(C4(CC#N)CCCCC4)c4cc[nH]c(=O)c34)ccc2S1(=O)=O` [Example 5-80, 2-(1-(3-((2-(tert-butyl)-1,1-dioxido-2,3-dihydrobenzo[d]isothiazol-5-yl)amino)-4-oxo-4,5-dihydro-1H-pyrazolo[4,3-c]pyridin-1-yl)cyclohexyl)acetonitrile], in that order: 0.08 nM and 1.21 nM.
In the case of `CC(C)(C)NC(=O)[C@@H]1CC[C@@](CC#N)(n2nc(Nc3ccc4c(c3)CN(C(C)(C)C)S4(=O)=O)c3c(=O)[nH]ccc32)CO1` [Example 19-1, (2S,5S)-N-(tert-butyl)-5-(3-((2-(tert-butyl)-1,1-dioxido-2,3-dihydrobenzo[d]isothiazol-5-yl)amino)-4-oxo-4,5-dihydro-1H-pyrazolo[4,3-c]pyridin-1-yl)-5-(cyanomethyl)tetrahydro-2H-pyran-2-carboxamide], the IC50 in experiment [1] came out at 0.08 nM; in experiment [2], 1.94 nM.
For `CC(C)(C)OC(=O)N1CC[C@@](CC#N)(n2nc(Nc3ccc(S(C)(=O)=O)cc3)c3c(=O)[nH]ccc32)[C@@H](F)C1` [Example 5-16, tert-butyl (3S,4S)-4-(cyanomethyl)-3-fluoro-4-(3-{[4-(methyl-sulfonyl)phenyl]amino}-4-oxo-4,5-dihydro-1H-pyrazolo[4,3-c]pyridin-1-yl)piperidine-1-carboxylate], in that order: 0.12 nM and 0.35 nM.
For `N#CC[C@@]1(n2nc(Nc3ccc(S(=O)(=O)C4CCCC4)cc3)c3c(=O)[nH]ccc32)CCCOC1` [Example 5-191, [(3S)-3-(3-{[4-(cyclopentylsulfonyl)phenyl]amino}-4-oxo-4,5-dihydro-1H-pyrazolo[4,3-c]pyridin-1-yl)tetrahydro-2H-pyran-3-yl]acetonitrile], in that order: 0.16 nM and 0.52 nM.
Take `Cc1cc(Nc2nn([C@]3(CC#N)CCCOC3)c3cc[nH]c(=O)c23)ccc1C(=O)N1CCCC[C@@H]1C` [Example 20-2, 2-((S)-3-(3-((3-methyl-4-((S)-2-methylpiperidine-1-carbonyl)phenyl)amino)-4-oxo-4,5-dihydro-1H-pyrazolo[4,3-c]pyridin-1-yl)tetrahydro-2H-pyran-3-yl)acetonitrile]: the results for the IC50 in experiment [1] and in experiment [2] were 0.43 nM and 0.62 nM, respectively.
For `C[C@@H]1CCCC1OC(=O)N1CCC(CC#N)(n2nc(Nc3ccc(S(=O)(=O)N(C)C)cc3)c3c(=O)[nH]ccc32)CC1` (mixture of isomers) [Example 11-2, (trans racemic)-2-methylcyclopentyl 4-(cyanomethyl)-4-(3-((4-(N,N-dimethylsulfamoyl)phenyl)amino)-4-oxo-4,5-dihydro-1H-pyrazolo[4,3-c]pyridin-1-yl)piperidine-1-carboxylate], in that order: 0.38 nM and 1.69 nM.
As for `CC(C)(C)OC(=O)[C@@H]1CC[C@@](CC#N)(n2nc(Nc3ccc4c(c3)CN(C(C)(C)C)C4=O)c3c(=O)[nH]ccc32)CO1` [Example 5-100, (2S,5S)-tert-butyl 5-(3-((2-(tert-butyl)-1-oxoisoindolin-5-yl)amino)-4-oxo-4,5-dihydro-1H-pyrazolo[4,3-c]pyridin-1-yl)-5-(cyanomethyl)tetrahydro-2H-pyran-2-carboxylate], the results for the IC50 in experiment [1] and in experiment [2] were 0.14 nM and 0.26 nM, respectively.
For `CN(C)S(=O)(=O)c1ccc(Nc2nn(C3(CC#N)CCN(C(=O)CC#N)CC3)c3cc[nH]c(=O)c23)cc1` [Example 9-25, 4-((1-(1-(2-cyanoacetyl)-4-(cyanomethyl)piperidin-4-yl)-4-oxo-4,5-dihydro-1H-pyrazolo[4,3-c]pyridin-3-yl)amino)-N,N-dimethylbenzenesulfonamide], in that order: 0.1 nM and 0.16 nM.
With `CC(C)NS(=O)(=O)c1ccc(Nc2nn(C3(CC#N)CCN(C(=O)OC(C)(C)C)CC3)c3cc[nH]c(=O)c23)cc1F` [Example 5-295, tert-butyl 4-(cyanomethyl)-4-(3-((3-fluoro-4-(N-isopropylsulfamoyl)phenyl)amino)-4-oxo-4,5-dihydro-1H-pyrazolo[4,3-c]pyridin-1-yl)piperidine-1-carboxylate], the figures for the IC50 in experiment [1] and in experiment [2] were 0.42 nM and 0.6 nM, respectively.
For `N#CCC1(n2nc(Nc3ccc(F)cc3)c3c(=O)[nH]ccc32)CCN(C(=O)C2CC2)CC1` [Example 7, [1-(cyclopropylcarbonyl)-4-{3-[(4-fluorophenyl)amino]-4-oxo-4,5-dihydro-1H-pyrazolo[4,3-c]pyridin-1-yl}piperidin-4-yl]acetonitrile], in that order: 0.09 nM and 1.9 nM.
With `CC(C)(C)OC(=O)[C@@H]1CC[C@@](CC#N)(n2nc(Nc3ccc(C(N)C(F)(F)F)cc3)c3c(=O)[nH]ccc32)CO1` (stereo partly drawn) [Example 5-103, (2S,5S)-tert-butyl 5-(3-((4-(1-amino-2,2,2-trifluoroethyl)phenyl)amino)-4-oxo-4,5-dihydro-1H-pyrazolo[4,3-c]pyridin-1-yl)-5-(cyanomethyl)tetrahydro-2H-pyran-2-carboxylate], the values for the IC50 in experiment [1] and in experiment [2] were 0.07 nM and 0.23 nM, respectively.
In the case of `CN(C)S(=O)(=O)c1ccc(Nc2nn(C3(CC#N)CCN(S(=O)(=O)C4CC4)CC3)c3cc[nH]c(=O)c23)cc1` [Example 14-2, 4-((1-(4-(cyanomethyl)-1-(cyclopropylsulfonyl)piperidin-4-yl)-4-oxo-4,5-dihydro-1H-pyrazolo[4,3-c]pyridin-3-yl)amino)-N,N-dimethylbenzenesulfonamide], the IC50 in experiment [1] stood at 0.06 nM; in experiment [2], 0.12 nM.
As to `Cc1cc(Nc2nn([C@]3(CC#N)CC[C@@H](C(=O)OC(C)(C)C)OC3)c3cc[nH]c(=O)c23)ccc1C(=O)N1C[C@@H]2C[C@H]1CO2` [Example 20-16, (2S,5S)-tert-butyl 5-(3-((4-((1S,4S)-2-oxa-5-azabicyclo[2.2.1]heptane-5-carbonyl)-3-methylphenyl)amino)-4-oxo-4,5-dihydro-1H-pyrazolo[4,3-c]pyridin-1-yl)-5-(cyanomethyl)tetrahydro-2H-pyran-2-carboxylate], the results for the IC50 in experiment [1] and in experiment [2] were 0.1 nM and 0.15 nM, respectively.
For `CN(C)S(=O)(=O)c1ccc(Nc2nn([C@@]3(CC#N)CCN(C(=O)OC(C)(C)C)C[C@H]3F)c3cc[nH]c(=O)c23)cc1` [Example 5-18, tert-butyl (3R,4R)-4-(cyanomethyl)-4-(3-{[4-(dimethylsulfamoyl)phenyl]amino}-4-oxo-4,5-dihydro-1H-pyrazolo [4,3-c]pyridin-1-yl)-3-fluoropiperidine-1-carboxylate], in that order: 0.1 nM and 0.12 nM.
For `CC(C)(C)OC(=O)[C@@H]1CC[C@@](CC#N)(n2nc(Nc3ccc4ncccc4c3)c3c(=O)[nH]ccc32)CO1` [Example 5-215, (2S,5S)-tert-butyl 5-(cyanomethyl)-5-(4-oxo-3-(quinolin-6-ylamino)-4,5-dihydro-1H-pyrazolo[4,3-c]pyridin-1-yl)tetrahydro-2H-pyran-2-carboxylate], in that order: 0.07 nM and 0.63 nM.
For `N#CC[C@]1(n2nc(Nc3ccc(Cl)cc3)c3c(=O)[nH]ccc32)CC[C@H](NCC(F)(F)F)CC1` [Example 18-11, Trans 2-(1-(3-((4-chlorophenyl)amino)-4-oxo-4,5-dihydro-1H-pyrazolo[4,3-c]pyridin-1-yl)-4-((2,2,2-trifluoroethyl)amino)cyclohexyl)acetonitrile], in that order: 0.22 nM and 2.2 nM.
Consider `CN(C)S(=O)(=O)c1ccc(Nc2nn([C@@]3(CC#N)CCCOC3)c3cc[nH]c(=O)c23)cc1` [Example 5-29, (R)-4-((1-(3-(cyanomethyl)tetrahydro-2H-pyran-3-yl)-4-oxo-4,5-dihydro-1H-pyrazolo[4,3-c]pyridin-3-yl)amino)-N,N-dimethyl benzenesulfonamide], for which the IC50 in experiment [1] was determined as 13.5 nM; in experiment [2], 27.7 nM.
Turning to `CC(C)(C)NC(c1ccc(Nc2nn([C@]3(CC#N)CCCOC3)c3cc[nH]c(=O)c23)cc1)C(F)(F)F` (single isomer, unassigned) [Example 5-189, {(3S)-3-[3-({4-[(1R or 1S)-1-(tert-butylamino)-2,2,2-trifluoroethyl]phenyl}amino)-4-oxo-4,5-dihydro-1H-pyrazolo [4,3-c]pyridin-1-yl]tetrahydro-2H-pyran-3-yl}acetonitrile], the figures for the IC50 in experiment [1] and in experiment [2] were 0.14 nM and 0.17 nM, respectively.
